Results on 11 molecules are retold here after patent publication US7846925B2, “Azolidinone-vinyl fused-benzene derivatives” (Merck Serono SA, priority 2002, dated 2010).

Assay [1] addresses Human recombinant GST-PI3Kγ (Homo sapiens, UniProt P48736). The assay is described as follows: High Throughput PI3K Lipid Kinase Assay (scintillation proximity assay). The assay is classed as biochemical. How it is done: a) High Throughput PI3K Lipid Kinase Assay (Binding Assay):
The assay combines the scintillation proximity assay technology (SPA, Amersham) with the capacity of neomycin (a polycationic antibiotic) to bind phospholipids with high affinity and specificity. The Scintillation Proximity Assay is based on the properties of weakly emitting isotopes (such as ^3H, ^125I, ^33P). Coating SPA beads with neomycin allows the detection of phosphorylated lipid substrates after incubation with recombinant PI3K and radioactive ATP in the same well, by capturing the radioactive phospholipids to the SPA beads through their specific binding to neomycin.
To a 384 wells MTP containing 5 μl of the test compound of formula (I) (solubilized in 6% DMSO; to yield a concentration of 100, 30, 10, 3, 1, 0.3, 0.1, 0.03, 0.01, 0.001 μM of the test compound), the following assay components are added. 1) 5 μl (58 ng) of Human recombinant GST-PI3Kγ (in Hepes 40 mM, pH 7.4, DTT 1 mM and ethyleneglycol 5%) 2) 10 μl of lipid micelles and 3) 10 μl of Kinase buffer ([^33P]γATP 45 μM/60 nCi, MgCl2 30 mM, DTT 1 mM, β-Glycerophosphate 1 mM, Na3VO4 100 μM, Na Cholate 0.3%, in Hepes 40 mM, pH 7.4). After incubation at room temperature for 180 minutes, with gentle agitation, the reaction is stopped by addition of 60 μl of a solution containing 100 μg of neomycin-coated PVT SPA beads in PBS containing ATP 10 mM and EDTA 5 mM. The assay is further incubated at room temperature for 60 minutes with gentle agitation to allow binding of phospholipids to neomycin-SPA beads. After precipitation of the neomycin-coated PVT SPA beads for 5 minutes at 1500×g, radioactive PtdIns(3)P is quantified by scintillation counting in a Wallac MicroBeta™ plate counter.
The values indicated in respect of PI3Kγ refer to the IC50 (μM), i.e. the amount necessary to achieve 50% inhibition of said target. Said values show a considerable potency of the azolidinone-vinyl fused-benzene compounds with regard to PI3Kγ.
(In general: SPA uses beads or plates that emit light when radiolabelled molecules are held near them.)

The test system of assay [2] is C5a-mediated AKT phosphorylation. Put plainly: Cell based ELISA: Akt/PKB phosphorylation in Raw 264-7 macrophages after stimulation with C5a. The settings on record: Mus musculus, RAW264.7, compound at 1 μM, 50 nM C5a, read-out: percentage of inhibition of C5a-mediated AKT phosphorylation. How it is done:
b) Cell Based ELISA to Monitor PI3K Inhibition:
Measurement of Akt/PKB phosphorylation in macrophages after stimulation with C5a: Raw 264: Raw 264-7 macrophages (cultured in DMEM-F12 medium containing 10% Fetal Calf serum and antibiotics) are plated at 20'000 cells/well in a 96 MTP 24 h before cell stimulation. Previous to the stimulation with 50 nM of Complement 5a (C5a; which is a well known chemokine which stimulates the used cells) during 5 minutes, Cells are serum starved for 2 h, and pretreated with inhibitors for 20 minutes. After stimulation cells are fixed in 4% formaldehyde for 20 minutes and washed 3 times in PBS containing 1% Triton X-100 (PBS/Triton). Endogenous peroxidase is blocked by a 20 minutes incubation in 0.6% H2O2 and 0.1% Sodium Azide in PBS/Triton and washed 3 times in PBS/Triton. Cells are then blocked by 60 minutes incubation with 10% fetal calf serum in PBS/Triton. Next, phosphorylated Atk/PKB is detected by an overnight incubation at 4° C. with first antibody (anti phospho Serine 473 Akt 1HC, Cell Signaling) diluted 800-fold in PBS/Triton, containing 5% bovine serum albumin (BSA). After 3 washes in PBS/Triton, cells are incubated for 60 minutes with a peroxidase conjugated goat-anti-rabbit antibody (1/400 dilution in PBS/Triton, containing 5% BSA), washed 3 times in PBS/Triton, and 2 times in PBS and further incubated in 100 μl of substrate reagent solution (R&D) for 20 minutes.
The reaction is stopped by addition of 50 μl of 1 M H2SO4 and absorbance is read at 450 nm.
The values indicated reflect the percentage of inhibition of AKT phosphorylation as compared to basal level. Said values show a clear effect of the azolidinone-vinyl fused-benzene compounds on the activation of AKT phosphorylation in macrophages.

The test system of the next assay is Class I PI3-kinases. The conditions noted are these: read-out: IC50 against each of these PI3-kinases; cited from earlier work.
A further assay deals with CK2 protein kinase (Homo sapiens, UniProt P68400). The settings on record: cited from earlier work.
Chain of CK2 protein kinase (P68400 whole entry): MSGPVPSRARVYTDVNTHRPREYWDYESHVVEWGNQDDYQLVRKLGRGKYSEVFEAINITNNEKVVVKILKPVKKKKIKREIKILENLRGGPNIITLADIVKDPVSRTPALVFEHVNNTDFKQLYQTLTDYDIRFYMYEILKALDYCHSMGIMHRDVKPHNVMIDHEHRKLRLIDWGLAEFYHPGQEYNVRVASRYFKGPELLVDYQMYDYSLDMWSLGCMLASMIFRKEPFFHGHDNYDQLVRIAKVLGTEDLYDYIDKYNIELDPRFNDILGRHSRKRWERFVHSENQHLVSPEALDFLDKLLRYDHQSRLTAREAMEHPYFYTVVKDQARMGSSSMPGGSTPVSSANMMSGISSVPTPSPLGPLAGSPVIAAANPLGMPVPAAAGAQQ
A further assay has as its system phospholipases. The settings on record: cited from earlier work.
A further assay has as its system neutrophil. The conditions noted are these: cited from earlier work.
The conditions of assay [3]: in vivo; cited from earlier work.

A value given as a limit tells only on which side of the number the result lay.

Chain of Human recombinant GST-PI3Kγ (P48736 whole entry): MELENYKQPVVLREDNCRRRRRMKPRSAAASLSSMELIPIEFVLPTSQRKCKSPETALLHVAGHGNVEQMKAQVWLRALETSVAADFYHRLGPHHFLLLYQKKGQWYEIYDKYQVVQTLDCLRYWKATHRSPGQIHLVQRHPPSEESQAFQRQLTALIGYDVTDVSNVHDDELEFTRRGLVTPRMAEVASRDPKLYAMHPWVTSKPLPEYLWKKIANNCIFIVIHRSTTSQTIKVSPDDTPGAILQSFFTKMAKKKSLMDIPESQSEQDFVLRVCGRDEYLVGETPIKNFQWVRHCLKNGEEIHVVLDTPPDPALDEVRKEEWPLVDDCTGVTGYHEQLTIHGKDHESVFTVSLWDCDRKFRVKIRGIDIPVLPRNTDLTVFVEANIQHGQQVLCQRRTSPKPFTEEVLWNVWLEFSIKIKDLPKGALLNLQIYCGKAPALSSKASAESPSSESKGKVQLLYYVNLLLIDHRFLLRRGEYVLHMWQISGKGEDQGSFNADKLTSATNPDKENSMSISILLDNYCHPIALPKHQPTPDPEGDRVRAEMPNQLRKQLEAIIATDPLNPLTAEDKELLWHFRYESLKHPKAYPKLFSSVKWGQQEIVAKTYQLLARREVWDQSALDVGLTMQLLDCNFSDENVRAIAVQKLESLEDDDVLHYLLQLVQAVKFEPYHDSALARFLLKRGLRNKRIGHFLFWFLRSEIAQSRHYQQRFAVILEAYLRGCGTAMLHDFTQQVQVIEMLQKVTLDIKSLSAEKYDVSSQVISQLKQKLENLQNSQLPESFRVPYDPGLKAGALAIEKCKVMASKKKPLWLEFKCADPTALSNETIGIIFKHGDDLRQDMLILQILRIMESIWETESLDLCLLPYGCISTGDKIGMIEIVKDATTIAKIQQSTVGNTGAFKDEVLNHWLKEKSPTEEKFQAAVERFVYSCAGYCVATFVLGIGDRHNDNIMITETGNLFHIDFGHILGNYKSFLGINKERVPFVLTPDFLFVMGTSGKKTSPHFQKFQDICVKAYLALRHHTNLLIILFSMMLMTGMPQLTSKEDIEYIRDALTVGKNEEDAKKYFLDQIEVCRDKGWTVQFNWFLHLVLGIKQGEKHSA

As usually defined, the IC50 is the concentration that inhibits the measured activity by half. Usually inhibition stands for how much of the control response was suppressed. Turning to `O=C1NC(=O)/C(=C/c2ccc3nsnc3c2)S1` [Example 107, 5-Benzo[1,2,5]thiadiazol-5-ylmethylene-thiazolidine-2,4-ione], the IC50 in assay [1] was < 1 µM. The inhibition at 1 µM in assay [2] was ~100%.

As for `O=C1NC(=O)/C(=C/c2ccc3c(c2)OCO3)S1` [Example 1, 5-(1,3-benzodioxol-5-ylmethylene)-1,3-thiazolidine-2,4-dione], the inhibition at 1 µM in assay [2] is ~100%.

In the case of `O=C1NC(=O)/C(=C/c2ccc3c(c2)N(Cc2ccccc2)C(=O)CO3)S1` [Example 103, 5-(4-Benzyl-3-oxo-3,4-dihydro-2H-benzo[1,4]oxazin-6-ylmethylene)-thiazolidine-2,4-dione], the half-maximal inhibitory concentration (IC50) in assay [1] was < 1 µM.

Take `N=C1NC(=O)/C(=C/c2ccc3nccnc3c2)S1` [Example 66, 2-Imino-5-quinoxalin-6-ylmethylene-thiazolidin-4-one]: the half-inhibitory concentration (IC50) in assay [1] is < 1 µM. Also, the inhibition at 1 µM in assay [2] is ~100%.

With `O=c1cc(N2CCOCC2)oc2c(-c3ccccc3)cccc12` [LY294002], the half-maximal inhibitory concentration (IC50) in the assay with Class I PI3-kinases is 15 to 20 µM. Besides, the 50% inhibitory concentration (IC50) on CK2 protein kinase was 5 to 10 µM. The “inhibitory activity on phospholipases” value in the assay with phospholipases is “some inhibitory activity”. In the assay with neutrophil, the neutrophil migration result is on record as “block” and the superoxide release entry is reported as “block”.

For the molecule `O=C1NC(=O)/C(=C/c2ccc3occ(/C=C/C(=O)N4CCCCC4)c3c2)S1` [Example 73, 5-[3-(3-Oxo-3-piperidin-1-yl-propenyl)-benzofuran-5-ylmethylene]-thiazolidine-2,4-dione], the IC50 in assay [1] was < 1 µM.

Take `CC(C)(C)c1cc(/C=C2\SC(=N)NC2=O)cc2c1OCC2(C)C` [JA]: in assay [3], the “activity in a paw swelling assay” value was “inactive”.

With `COC(=O)c1cc2ccc(/C=C3\SC(=O)NC3=O)cc2o1` [Example 110, 5-(2-Carboxymethyl-benzofuran-6-ylmethylene)-thiazolidine-2,4-dione], the IC50 in assay [1] was < 1 µM.

In the case of `O=C1NC(=O)C(=Cc2ccc3ncnc(N4CCCCC4)c3c2)S1` [Example 19, 5-[(4-piperidin-1-ylquinazolin-6-yl)methylene]-1,3-thiazolidine-2,4-dione], in assay [2], the inhibition at 1 µM was ~100%.

Regarding `N=C1NC(=O)/C(=C/c2ccc3ncnc(N4CCCCC4)c3c2)S1` [Example 41, 2-Imino-5-(4-piperidine-quinazolin-6-ylmethylene)-thiazolidin-4-one], the half-inhibitory concentration (IC50) in assay [1] is < 1 µM.

For `COc1ccccc1Cn1cnc2ccc(C=C3SC(=O)NC3=O)cc21` [Example 61, 5-{[1-(2-methoxybenzyl)-1H-benzimidazol-6-yl]methylene}-1,3-thiazolidine-2,4-dione], the half-inhibitory concentration (IC50) in assay [1] was < 1 µM.
